In patent EP0374249A1, “METHOD OF STERILIZING PLANT POLLEN” (VSESOJUZNY NAUCHNO-ISSLEDOVATELSKY INST. SELSKOKHOZYAISTV. …, priority 1988, dated 1989):

Tests used:
[1] = test system: Winterweizens Sorte Mir.onovskaya 808; assay: Field test of pollen sterilisation (gametocidal activity), winter wheat Mironovskaya 808; type: in vivo, Winterweizen; details: 2% aqueous emulsion, 20 kg/ha; for Prozentsatz der Sterilität / Anzahl von Körnern der Ähre bei freier Bestäubung / Anzahl von Körnern der Ähre im Isolator: period V of organogenesis; for Anzahl von Körnern der Ähre bei freier Bestäubung: free pollination; for Anzahl von Körnern der Ähre im Isolator: isolated ears; for Prozentsatz des Ansetzens von Körnern bei freier Bestäubung: period V, non-isolated control ears = 100%
Excerpt: Als Emulgierungsmittel wird 0,1 Masse% Kalziumalkylbenzolsulfonat mit 12 bis 14 Kohlenstoffatomen hinzugefügt. Als Adjuvans fährt man in die Emulsion 0,01 Masse% Dimethylsulfoxid ein. Der Verbrauch an Präparat beträgt 20 kg/ha. Als Kontrolle dienen Pflanzen, behandelt mit einem Verdünner ohne Sterilisationsmittel.

[2] = test system: Winterweizens Sorte Bezostaya 1; assay: Field test of pollen sterilisation, winter wheat Bezostaya 1; type: in vivo, Winterweizen; details: 2% aqueous emulsion, 16 kg/ha; for Prozentsatz der Sterilität / Anzahl von Körnern der Ähre bei freier Bestäubung / Anzahl von Körnern der Ähre im Isolator: period V of organogenesis; for Anzahl von Körnern der Ähre bei freier Bestäubung: free pollination; for Anzahl von Körnern der Ähre im Isolator: isolated ears; for Prozentsatz des Ansetzens von Körnern bei breier Bestäubung: period V, non-isolated control ears = 100%
Excerpt: Pflanzen des Winterweizens Sorte Bezostaya 1 werden in der V. Periode der Organogenese durch Zerstäubung einer 2%igen wässrigen Emulsion von N-(2-Dimethylaminoäthyl)-maleaminsäure, N-(3-Dimethylaminopropyl)-maleaminsäure, N-Äthylmaleaminsäure, N-(2-Hydroxyäthyl)-maleaminsäure, N-Karbamoylmaleaminsäure mit Hilfe deiner Rückspritze behandelt. Die Emulsion enthält 0,1 Masse% Kalziumalkylbenzolsulfonat mit 12 bis 14 Kohlenstoffatomen. Als Adjuvans führt man in die Emulsion 0,01 Masse% Tetrahydrofuran ein.
Der Verbrauch an Präparat beträgt 16 kg/ha. Als Kontrolle dienen Pflanzen, behandelt mit einem Verdünner ohne Sterilisationsmitteln.

[3] = test system: Sommerweizens Sorte Moskovskaya 35; assay: Field test of pollen sterilisation, spring wheat Moskovskaya 35; type: in vivo, Sommerweizen; details: 1% aqueous emulsion, 10 kg/ha; for Prozentsatz der Sterilität / Anzahl von Körnern der Ähre bei freier Bestäubung / Anzahl von Körnern der Ähre im Isolator: period V of organogenesis; for Anzahl von Körnern der Ähre bei freier Bestäubung: free pollination; for Anzahl von Körnern der Ähre im Isolator: isolated ears; for Prozentsatz des Ansetzens von Körnern bei freier Bestäubung: period V, non-isolated control ears = 100%
Excerpt: Pflanzen des Sommerweizens Sorte Moskovskaya 35 werden in V. Periode der Organogenese (nach Kupermann) mit einer 1%igen wässrigen Emulsion von N-(2-Dimethyl-aminoäthyl)-maleaminsäure, N-(3-Dimethylaminopropyl)-maleaminsäure, N-Äthylmaleaminsäure, N-(2-Hydroxyäthyl) maleaminsäure bzw. N-Karbamoylmaleaminsäure behandelt. Die Emulsion enthält 0,5 Masse% Kalziumalkylbenzolsulfonat mit 12 bis 14 Kohlenstoffatomen als Emulgierungsmittel und 0,01 Masse% Dimethylformamid als Adjuvans. Der Verbrauch an Präparat beträgt 10 kg/ha. Als Kontrolle dienen Pflanzen, behandelt mit einem Verdünner ohne Sterilisationsmittel.

[4] = test system: Sommerweizens Sorte Botanicheskaya 4; assay: Field test of pollen sterilisation, spring wheat Botanicheskaya 4; type: in vivo, Sommerweizen; details: 1% aqueous emulsion, 6 kg/ha; for Prozentsatz der Sterilität / Anzahl von Körnern der Ähre bei freier Bestäubung / Anzahl von Körnern der Ähre im Isolator: period V of organogenesis; for Anzahl von Körnern der Ähre bei freier Bestäubung: free pollination; for Anzahl von Körnern der Ähre im Isolator: isolated ears; for Prozentsatz des Ansetzens von Körnern bei freier Bestäubung: period V, non-isolated control ears = 100%
Excerpt: Pflanzen des Sommerweizens Sorte Botanicheskaya 4 werden in der V. Periode der Organogenese (nach Kupermann) mit einer 1%igen Wässrigen Emulsion von N-(2-Dimethyl-aminoäthyl)-maleaminsäure, N-(3-Dimethylaminopropyl)-maleaminsäure, N-Äthylmaleaminsäure, N-(2-Hydroxyäthyl)-maleaminsäure bzw. N-Karbamoylmaleaminsäure behandelt. Die Emulsion enthält 0,5 Masse% Kalziumalkylbenzolsulfonat mit 12 bis 14 Kohlenstoffatomen und 0,01 Masse% Dimethylsulfoxid als Adjuvans. Der Verbrauch an Präparat beträgt 6 kg/ha. Als Kontrolle dienen Pflanzen, behandelt mit einem Verdünner ohne Sterilisationsmittel.

[5] = test system: tetraploidem Roggen Sorte Belta; assay: Field test of pollen sterilisation, tetraploid rye Belta; type: in vivo; details: 1% aqueous emulsion, 10 kg/ha; for Prozentsatz der Sterilität / Anzahl von Körnern der Ähre bei freier Bestäubung / Anzahl von Körnern der Ähre im Isolator: period V of organogenesis; for Anzahl von Körnern der Ähre bei freier Bestäubung: free pollination; for Anzahl von Körnern der Ähre im Isolator: isolated ears; for Prozentsatz des Ansetzens von Körnern bei freier Bestäubung: period V, non-isolated control ears = 100%
Excerpt: (§1) Die gametozide Aktivität der erfindungsgemässen Sterilisationsmittel war im Feldversuch in verschiedenen Bodenklimatischen Zonen mit Teilstücken von 10 m^2 Grösse in drei- bis viermaliger Wiederholung nachgewiesen. Jedes Sterilisationsmittel wurde mindestens 5 Jahre lang geprüft.
(§2) Die Entwicklung der Perioden der Organogenese wird zytologischüberwacht. Die Behandlung von Pflanzen mit dem Sterilisationsmittel erfolgt am Anfang der fünften Periode der Organogenese nach Kupermann.
(§3) Mit dem Ahrenschiebe verwirklicht man die Isolierung von Hauptähren und anderen Stockwerken in Pergamentbeuteln. Bei Weizen und Tritikale werden Einzelisolatoren verwendet. Bei Roggen schliesst man je Ähre 5 bis 7 verschiedene nebeneinander befindliche Pflanzen unter einen gemeinsamen Isolator ein. Bei Hirse wird jede Rispe getrennt isoliert. Der Sterilitätsprozentsatz (X) für Weizen, Roggen, Tritikale und Hirse wird nach folgender Formel [formula] ermittelt.
(§4) Die Kornzahl in nicht isolierten ähren von Kontrollpflanzen wird bedingt für 100% Ansetzen bei freier Bestäubung angenommen.
(§5) Um zuverlässige Angaben zu erhalten, verwendet man 20 bis 25 Isolatoren jeder Wiederholung für Weisen und Tritikale, 10 bis 15 Gruppenisolatoren jeder Wiederholung für Roggen und Hirse.
Pflanzen von tetraploidem Roggen Sorte Belta werden in der V. Periode der Organogenese (nach Kupermann) mit einer 1%igen wässrigen Emulsion von N-(2-Dimethylamino- .äthyl)maleaminsäure, N-(3-Dimethylaminopropyl)maleaminsäure, N-Äthylmaleaminsäure, N-(2-Hydroxyäthyl)maleaminsäure bzw. Karbamoylmaleaminsäure behandelt. Die Emulsion enthält 0,5 Masse% Kalziumalkylbenzolsulfonat mit 12 bis 14 Kohlenstoffatomen und 0,01 Masso% Tetrahydrofuran. Der Verbrauch an Präparat beträgt 10 kg/ha. Die Prüfergebnisse sind in der Tabelle 5 dargestellt. […] Periode der Organogenese erhalten.

[6] = test system: tetraploidem Roggen Sorte Ukrainskaya tetra; assay: Field test of pollen sterilisation, tetraploid rye Ukrainskaya tetra; type: in vivo; details: 1% aqueous emulsion, 6 kg/ha; for Prozentsatz der Sterilität / Anzahl von Körnern der Ähre bei freier Bestäubung / Anzahl von Körnern der Ähre im Isolator: period V of organogenesis; for Anzahl von Körnern der Ähre bei freier Bestäubung: free pollination; for Anzahl von Körnern der Ähre im Isolator: isolated ears; for Prozentsatz des Ansetzens von Körnern bei freier Bestäubung: period V, non-isolated control ears = 100%
Excerpt: (§6) Jedes Sterilisationsmittel wurde mindestens 5 Jahre lang geprüft.
as §2, §3, §4, §5
Pflanzen von tetraploidem Roggen Sorte Ukrainskaya tetra werden in der V. Periode der Organogenese (nach Kupermann) mit einer 1%igen wässrigen Emulsion von N-(2-Dimethylaminoäthyl)maleaminsäure, N-(3-Dimethyl-aminopropu)maleaminsäure bzw. N-Karbamoylmaleaminsäure behandelt. Die Emulsion enthält 0,1 Masse% Kaliumalkylbenzolsulfonat mit 12 bis 14 Kohlenstoffatomen und 0,01 Masse% Dodezylsulfat. Der Verbrauch an Präparat beträgt 6 kg/ha. Als Kontrolle dienen Pflanzen, behandelt mit einem Verdünner ohne Sterilisationsmittel. Die Prüfergebnisse sind in der Tabelle 6 dargestellt.

[7] = test system: diploidem Roggen Sorte Voskhod 2; assay: Field test of pollen sterilisation, diploid rye Voskhod 2; type: in vivo; details: 1% aqueous emulsion, 10 kg/ha; for Prozentsatz der Sterilität / Anzahl von Körnern der Ähre bei freier Bestäubung / Anzahl von Körnern der Ähre im Isolator: period V of organogenesis; for Anzahl von Körnern der Ähre bei freier Bestäubung: free pollination; for Anzahl von Körnern der Ähre im Isolator: isolated ears; for Prozentsatz des Ansetzens von Körnern bei freier Bestäubung: period V, non-isolated control ears = 100%
Excerpt: Die Emulsion enthält 0,1 Masse% Kalziumalkylbenzolsulfonat und 0,01 Masse% Dimethylformamid. Der Verbrauch an Präparat beträgt 10 kg/ha. Als Kontrolle dienen Pflanzen, behandelt mit einem Lösungsmittel ohne Sterilisationsmittel.

[8] = test system: diploidem Roggen Sorte Chulpan; assay: Field test of pollen sterilisation, diploid rye Chulpan; type: in vivo; details: 1% aqueous emulsion, 8 kg/ha; for Prozentsatz der Sterilität / Anzahl von Körnern der Ähre bei freier Bestäubung / Anzahl von Körnern der Ähre im Isolator: period V of organogenesis; for Anzahl von Körnern der Ähre bei freier Bestäubung: free pollination; for Anzahl von Körnern der Ähre im Isolator: isolated ears; for Prozentsatz des Ansetzens von Körnern bei freier Bestäubung: period V, non-isolated control ears = 100%
Excerpt: (§7) Mit dem Ahrenschiebe verwirklicht man die Isolierung von Hauptähren und anderen Stockwerken in Pergamentbeuteln. […] Bei Roggen schliesst man je Ähre 5 bis 7 verschiedene nebeneinander befindliche Pflanzen unter einen gemeinsamen Isolator ein. […] Der Sterilitätsprozentsatz (X) für Weizen, Roggen, Tritikale und Hirse wird nach folgender Formel [formula] ermittelt.
Die Emulsion enthält 0,01 Masse% Tetranydrofuran und 0,1 Masse% Kalziumalkylbenzolsulfonat mit 12 bis 14 Kohlenstoffatomen. Der Verbrauch an Präparat beträgt 8 kg/ha. Als Kontrolle dienen Pflanzen, behandelt mit einem Verdünner ohne Sterilisationsmittel.

[9] = test system: diploidem Roggen Sorte Talovskaya 12; assay: Field test of pollen sterilisation, diploid rye Talovskaya 12; type: in vivo; details: 1% aqueous emulsion, 6 kg/ha; for Prozentsatz der Sterilität / Anzahl von Körnern der Ähre bei freier Bestäubung / Anzahl von Körnern der Ähre im Isolator: period V of organogenesis; for Anzahl von Körnern der Ähre bei freier Bestäubung: free pollination; for Anzahl von Körnern der Ähre im Isolator: isolated ears; for Prozentsatz des Ansetzens von Körnern bei freier Bestäubung: period V, non-isolated control ears = 100%
Excerpt: as §7
Pflanzen von diploidem Roggen Sorte Talovskaya 12 werden in der V. Periode der Organogenese (nach Kupermann) mit einer 1%igen wässrigen Emulsion von N-(2-Di- methylaminoäthyl)-maleaminsäure, N-(3-Dimethylaminopropyl)-maleaminsäure, N-Äthylmaleaminsäure, N-(2-Hydroxyäthyl)maleaminsäure, N-Karbamoylmaleaminsäure behandelt. Die Emulsion enthält 0,01 Masse% Dodezylsulfat und 0,1 Masse% Kalziumalkylbenzolsulfonat mit 12 bis _14 Kohlenstoffatomen. Der Verbrauch an Präparat beträgt 6 kg/ha. Als Kontrolle dienen Pflanzen, behandelt mit einem Verdünner ohne Sterilisationsmittel.

[10] = test system: Tritikale Sorte Prag 109; assay: Field test of pollen sterilisation, triticale Prag 109; type: in vivo; details: 2% aqueous emulsion, 12 kg/ha
Excerpt: as §6, §2, §3, §4, §5
V.Periode der Organogenese (nach Kupermann) mit einer 2%igen wässrigen Emulsion von N-(3-Dimethylaminopropyl) maleaminsäure, N-Karbamoylmaleaminsäure behandelt. Die Emulsion enthält 0,01 Masse% Tetrahydrofuran […] und 0,1 Masse% Kalziumalkylbenzolsulfonat mit 12 bis 14 Kohlensotffatomen. Der Verbrauch an Präparat beträgt 12 kg/ha. Als Kontrolle dienen Pflanzen, behandelt mit einem Verdünner ohne Sterilisationsmittel.

[11] = test system: Hirse Sorte Mironovskoe 94; assay: Field test of pollen sterilisation, millet Mironovskoe 94; type: in vivo; details: 1% aqueous emulsion, 8 kg/ha; for Prozentsatz der Sterilität / Anzahl von Körnern der Rispe bei freier Bestäubung / Anzahl von Körnern der Rispe im Isolator: period V of organogenesis; for Anzahl von Körnern der Rispe bei freier Bestäubung: free pollination; for Anzahl von Körnern der Rispe im Isolator: isolated panicles; for Prozentsatz des Ansetzens von Körnern bei freier Bestäubung: period V, non-isolated control = 100%
Excerpt: as §1, §2, §3, §4, §5
Pflanzen der Hirse Sorte Mironovskoe 94 werden in der V. Periode der Organogenese (nach Kupermann) mit einer 1%igen wässrigen Emulsion von N-(2-Dimethylaminoäthyl)maleaminsäure, N-(3-Dimethylaminopropyl)maleaminsäure, N-Äthylmaleaminsäure, N-(2-Hydroxyäthyl)maleaminsäure, N-Karbamoylmaleaminsäure behandelt. Die Emulsion enthält 0,01 Masse% Dimethylaulfoxid und 0,1 Masse% Kalziumalkylbenzolsulfonat mit 12 bis 14 Kohlenstoffatomen. Der Verbrauch an Präparat beträgt 8 kg/ha. Als Kontrolle dienen Pflanzen, behandelt mit einem Verdünner ohne Sterilisationsmittel. Die Prüfergebnisse sind in der Tabelle 12 dargestellt. […] Periode der Organogenese erhalten.

[12] = Toxicity test in animals (LD50); details: in vivo; animal test, per kg animal weight; species and route not given
Excerpt: Alle erfindungsgemässen N-substituierten Maleaminsäuren, welche als Sterilisationsmittel zur Verwendung kommen, waren auf die Toxizität im Tierversuch geprüft. Die Prüfergebnisse haben ergeben, dass die angegebenen Verbindungen von schwacher oder mittlerer Toxizität sind.

Structure (SMILES): CN(C)CCCNC(=O)/C=C\C(=O)O [Beispiel 2, N-(3-Dimethylaminopropyl)-maleaminsäure]
- Prozentsatz der Sterilität [1]: 99,8%
- Anzahl von Körnern der Ähre bei freier Bestäubung [1]: 41,5
- Anzahl von Körnern der Ähre im Isolator [1]: 0,1
- Prozentsatz des Ansetzens von Körnern bei freier Bestäubung [1]: 97,4%
- Prozentsatz der Sterilität [2]: 100,0%
- Anzahl von Körnern der Ähre bei freier Bestäubung [2]: 40,2
- Anzahl von Körnern der Ähre im Isolator [2]: 0,0
- Prozentsatz des Ansetzens von Körnern bei breier Bestäubung [2]: 93,7%
- Prozentsatz der Sterilität [3]: 98,9%
- Anzahl von Körnern der Ähre bei freier Bestäubung [3]: 27,0
- Anzahl von Körnern der Ähre im Isolator [3]: 0,3
- Prozentsatz des Ansetzens von Körnern bei freier Bestäubung [3]: 98,2%
- Prozentsatz der Sterilität [4]: 99,7%
- Anzahl von Körnern der Ähre bei freier Bestäubung [4]: 27,7
- Anzahl von Körnern der Ähre im Isolator [4]: 0,1
- Prozentsatz des Ansetzens von Körnern bei freier Bestäubung [4]: 92,0%
- Prozentsatz der Sterilität [5]: 100,0%
- Anzahl von Körnern der Ähre bei freier Bestäubung [5]: 47,7
- Anzahl von Körnern der Ähre im Isolator [5]: 0,0
- Prozentsatz des Ansetzens von Körnern bei freier Bestäubung [5]: 87,0%
- Prozentsatz der Sterilität [6]: 100,0%
- Anzahl von Körnern der Ähre bei freier Bestäubung [6]: 42,6
- Anzahl von Körnern der Ähre im Isolator [6]: 0,0
- Prozentsatz des Ansetzens von Körnern bei freier Bestäubung [6]: 95,1%
- Prozentsatz der Sterilität [7]: 100,0%
- Anzahl von Körnern der Ähre bei freier Bestäubung [7]: 48,0
- Anzahl von Körnern der Ähre im Isolator [7]: 0,0
- Prozentsatz des Ansetzens von Körnern bei freier Bestäubung [7]: 87,0%
- Prozentsatz der Sterilität [8]: 100,0%
- Anzahl von Körnern der Ähre bei freier Bestäubung [8]: 51,6
- Anzahl von Körnern der Ähre im Isolator [8]: 0,0
- Prozentsatz des Ansetzens von Körnern bei freier Bestäubung [8]: 90,8%
- Prozentsatz der Sterilität [9]: 100,0%
- Anzahl von Körnern der Ähre bei freier Bestäubung [9]: 48,0
- Anzahl von Körnern der Ähre im Isolator [9]: 0,0
- Prozentsatz des Ansetzens von Körnern bei freier Bestäubung [9]: 85,4%
- Prozentsatz der Sterilität ([10]; period V of organogenesis): 100,0%
- Anzahl von Körnern der Ähre bei freier Bestäubung ([10]; period V of organogenesis, free pollination): 40,3
- Anzahl von Körnern der Ähre im Isolator ([10]; period V of organogenesis, isolated ears): 0,0
- Prozentsatz des Ansetzens von Körnern bei freier Bestäubung ([10]; period V, non-isolated control ears = 100%): 88,0%
- Prozentsatz der Sterilität [11]: 100,0%
- Anzahl von Körnern der Rispe bei freier Bestäubung [11]: 214,5
- Anzahl von Körnern der Rispe im Isolator [11]: 0,0
- Prozentsatz des Ansetzens von Körnern bei freier Bestäubung [11]: 94,4%
- LD50 [12]: > 10000 mg/kg

Structure (SMILES): CN(C)CCNC(=O)/C=C\C(=O)O [Beispiel 1, N-(2-Dimethylaminoäthyl)-maleaminsäure]
- Prozentsatz der Sterilität [1]: 99,8%
- Anzahl von Körnern der Ähre bei freier Bestäubung [1]: 38,3
- Anzahl von Körnern der Ähre im Isolator [1]: 0,1
- Prozentsatz des Ansetzens von Körnern bei freier Bestäubung [1]: 89,9%
- Prozentsatz der Sterilität [2]: 100,0%
- Anzahl von Körnern der Ähre bei freier Bestäubung [2]: 39,7
- Anzahl von Körnern der Ähre im Isolator [2]: 0,0
- Prozentsatz des Ansetzens von Körnern bei breier Bestäubung [2]: 92,5%
- Prozentsatz der Sterilität [3]: 99,3%
- Anzahl von Körnern der Ähre bei freier Bestäubung [3]: 26,8
- Anzahl von Körnern der Ähre im Isolator [3]: 0,2
- Prozentsatz des Ansetzens von Körnern bei freier Bestäubung [3]: 97,4%
- Prozentsatz der Sterilität [4]: 97,5%
- Anzahl von Körnern der Ähre bei freier Bestäubung [4]: 29,8
- Anzahl von Körnern der Ähre im Isolator [4]: 0,7
- Prozentsatz des Ansetzens von Körnern bei freier Bestäubung [4]: 99,0%
- Prozentsatz der Sterilität [5]: 100,0%
- Anzahl von Körnern der Ähre bei freier Bestäubung [5]: 48,2
- Anzahl von Körnern der Ähre im Isolator [5]: 0,0
- Prozentsatz des Ansetzens von Körnern bei freier Bestäubung [5]: 88,2%
- Prozentsatz der Sterilität [6]: 100,0%
- Anzahl von Körnern der Ähre bei freier Bestäubung [6]: 40,1
- Anzahl von Körnern der Ähre im Isolator [6]: 0,0
- Prozentsatz des Ansetzens von Körnern bei freier Bestäubung [6]: 89,5%
- Prozentsatz der Sterilität [7]: 100,0%
- Anzahl von Körnern der Ähre bei freier Bestäubung [7]: 51,2
- Anzahl von Körnern der Ähre im Isolator [7]: 0,0
- Prozentsatz des Ansetzens von Körnern bei freier Bestäubung [7]: 92,7%
- Prozentsatz der Sterilität [8]: 99,6%
- Anzahl von Körnern der Ähre bei freier Bestäubung [8]: 50,2
- Anzahl von Körnern der Ähre im Isolator [8]: 0,2
- Prozentsatz des Ansetzens von Körnern bei freier Bestäubung [8]: 88,4%
- Prozentsatz der Sterilität [9]: 99,5%
- Anzahl von Körnern der Ähre bei freier Bestäubung [9]: 51,2
- Anzahl von Körnern der Ähre im Isolator [9]: 0,2
- Prozentsatz des Ansetzens von Körnern bei freier Bestäubung [9]: 91,1%
- Prozentsatz der Sterilität [11]: 100,0%
- Anzahl von Körnern der Rispe bei freier Bestäubung [11]: 224,8
- Anzahl von Körnern der Rispe im Isolator [11]: 0,0
- Prozentsatz des Ansetzens von Körnern bei freier Bestäubung [11]: 98,9%
- LD50 [12]: 2500 mg/kg
